The text below walks through data of patent EP1034782A1, “Treatment of depression by using compounds which elevate the intracellular sodium concentration” (Singer, Andrea, priority 1999, dated 2000).

In assay [1] the test system is human platelets. Description: Measuring [Na^+]i with SBFI/AM fluorescence in platelets. It is filed as cell-based. The settings on record: for [Na^+]i elevated from basal levels up to: highest concentration investigated: 50 µM hyperforin, 10 µM monensin, platelets, SBFI fluorescence. The method, then:
Solutions: The Na^+-HEPES buffer consisted 10 mM HEPES, 1 mM MgSO4, 5 mM KH2PO4, 5 mM KCI and 5 mM Glucose (4). The pH of this buffer was adjusted to 6.5 with NH3 (for storage of platelets) and to 7.4 for the measurement of fluorescence. The K^+ solution was identical except for complete replacement of sodium by potassium.
Preparation of platelets and loading with SBFI/AM: Venous blood (10 ml) was anticoagulated by mixing it with 1.0 ml citrate solution in a S-Monovette. […] Platelet pellets were obtained from PRP by centifugation at 480 x g for 30 min at room temperature. The pellet was resuspended into Sodium-HEPES buffer, pH 6.5 at a final concentration of 3-4 x 10^8 cells/ml. […] Appropriate amounts of this solution were added to the platelets to yield a final concentration of SBFI/AM of 10 µM and platelets were incubated with the dye for 60 min at 37°C in a shaking water bath. Thereafter, platelets were again centrifuged at 480 x g for 30 min at RT. The supernatant was discarded and the platelets were taken up into sodium-HEPES buffer, pH 6.5 at a concentration of 3-4 x 10^9 cells/ml. The platelet suspension was then stored at RT until used for the fluorescence measurements.
Measurement of SBFI/AM Fluorescence: Aliquots of platelet suspension (4 µl) were added to 950 µl of the appropriate buffer. Fluorescence was measured in quartz cuvettes using a SLM-Aminco luminescence spectrometer before and after addition of the tested drugs. […] All measurements were performed without stirring at room temperature.

Assay [2] deals with T1, human serotonin transporter (Homo sapiens, UniProt P31645).
T1 construct: Blood from normal unmedicated volunteers was anticoagulated; endogenous in cells; host or cells: human platelets from blood of unmedicated volunteers
T1 sequence (P31645 whole entry): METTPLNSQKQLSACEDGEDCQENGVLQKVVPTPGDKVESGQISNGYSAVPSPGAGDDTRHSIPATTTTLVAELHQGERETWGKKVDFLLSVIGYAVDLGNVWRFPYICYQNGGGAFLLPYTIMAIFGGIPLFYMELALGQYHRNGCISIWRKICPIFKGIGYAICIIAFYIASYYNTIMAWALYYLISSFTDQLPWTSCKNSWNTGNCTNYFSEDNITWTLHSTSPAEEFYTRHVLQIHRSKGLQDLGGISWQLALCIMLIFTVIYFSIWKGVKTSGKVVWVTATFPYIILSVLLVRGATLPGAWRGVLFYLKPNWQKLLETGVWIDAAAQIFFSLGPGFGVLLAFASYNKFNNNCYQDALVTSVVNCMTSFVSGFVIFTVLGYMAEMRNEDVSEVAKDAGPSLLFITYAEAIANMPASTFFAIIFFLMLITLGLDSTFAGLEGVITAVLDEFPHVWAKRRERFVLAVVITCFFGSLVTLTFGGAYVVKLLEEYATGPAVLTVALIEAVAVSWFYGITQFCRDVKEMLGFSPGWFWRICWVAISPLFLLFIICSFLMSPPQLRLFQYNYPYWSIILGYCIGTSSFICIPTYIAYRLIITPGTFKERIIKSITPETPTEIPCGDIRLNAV
Description: ^3H-serotonin uptake in platelets. It is filed as cell-based.

Assay [3] relates to norepinephrine. Description: Synaptosomal uptake of norepinephrine. The assay is classed as cell-based. The settings on record: unpublished observations.
The subject of assay [4] is dopamine. Description: Synaptosomal uptake of dopamine. It is filed as cell-based. The settings on record: unpublished observations.
Assay [5] addresses T2, serotonin transporter (Mus musculus, UniProt Q60857).
T2 construct: Synaptosomal preparations from frontal cortex of female NMRI mice were used for serotonin uptake; from tissue; host or cells: frontal cortex of female NMRI mice (synaptosomes or membranes)
Description: Kinetic analyses of ^3H-serotonin uptake into mouse cortex synaptosomes. The settings on record: hyperforin 2 µM, citalopram 1 nM, monensin concentration not given in the text. The assay is classed as cell-based.

For assay [6], the target named is T2, serotonin transporter. The experiment in a line: Synaptosomal uptake of ^3H-serotonin (mouse cortex synaptosomes). The assay is classed as cell-based.
Description: Synaptosomal preparations from frontal cortex of female NMRI mice were used for serotonin uptake. The tissue was homogenized in ice cold sucrose solution (0.32 M) and diluted with 10 ml of the homogenizing medium. The nuclear fraction was eliminated by centrifugation at 750 x g for 10 min (Beckman Centrifuge, Model J2-21). […] The probes were cooled, immediately filtered through Whatman GF/B glass fiber filters and washed three times with ice cold buffer solution with a Brandel cell harvester. Filters were placed in plastic scintillation vials containing 4 ml Lumasafe scintillation cocktail (Packard). Radioactivity was measured after 12 hours. Nonspecific uptake was determined in parallel probes maintained throughout on ice or containing unlabelled serotonin (1mM serotonin).
The test system of assay [7] is GABA. The experiment in a line: Synaptosomal uptake of GABA. It is filed as cell-based. The note with it: unpublished observations.
Assay [8] deals with T2, serotonin transporter. Description: ^3H-paroxetine binding assay (mouse frontal cortex membranes). The method, then:
Female NMRI mice were sacrified by decapitation. […] The homogenate was centrifuged for 10 min at 35000 x g at 4°C. The resulting pellet was resuspended in 40 volumes of buffer and recentrifuged. The pellet was resuspended in TRIS buffer at a protein concentration of 70 µg/ml. Aliquots of membrane suspension were incubated with ^3H-paroxetine (0.2 nM) at room temperature for 60 minutes. Incubation was terminated by rapid filtration through Whatman GF/B glass fiber filters with a Brandel Cell Harvester. […] The filters were washed 7 times with ice cold buffer, dried and the radioactivity was measured by liquid scintillation spectrometry.

The test system of assay [9] is L-glutamate. Description: Synaptosomal uptake of L-glutamate. The assay is classed as cell-based. The settings on record: unpublished observations.

T2 sequence (Q60857 whole entry): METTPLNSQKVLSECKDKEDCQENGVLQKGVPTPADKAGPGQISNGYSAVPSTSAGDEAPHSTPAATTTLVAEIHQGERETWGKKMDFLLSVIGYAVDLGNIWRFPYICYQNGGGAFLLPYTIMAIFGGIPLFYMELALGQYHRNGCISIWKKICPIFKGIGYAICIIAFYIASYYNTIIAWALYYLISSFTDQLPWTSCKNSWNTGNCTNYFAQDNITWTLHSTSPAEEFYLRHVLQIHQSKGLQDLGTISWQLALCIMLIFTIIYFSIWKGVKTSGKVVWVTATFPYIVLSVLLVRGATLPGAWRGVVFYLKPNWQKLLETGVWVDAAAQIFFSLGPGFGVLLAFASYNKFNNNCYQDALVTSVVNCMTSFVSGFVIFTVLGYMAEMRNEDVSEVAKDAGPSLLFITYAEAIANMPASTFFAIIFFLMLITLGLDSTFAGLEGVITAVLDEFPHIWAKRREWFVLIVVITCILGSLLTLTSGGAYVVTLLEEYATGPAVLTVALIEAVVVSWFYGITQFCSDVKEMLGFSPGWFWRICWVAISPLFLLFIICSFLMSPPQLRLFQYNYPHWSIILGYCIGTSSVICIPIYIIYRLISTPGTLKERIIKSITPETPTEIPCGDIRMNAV

With `CC(C)=CCCC1(C)C(CC=C(C)C)CC2(CC=C(C)C)C(=O)C(CC=C(C)C)=C(O)C1(C(=O)C(C)C)C2=O` (centres unmarked) [Hyperforin], the “Maximal elevation of [Na^+]i” value in assay [1] (50 µM hyperforin, human platelets) was “about 70 mM”. The “[Na^+]i elevated from basal levels up to” value in assay [1] was 69,0 ± 16,1 mM. Moreover, in [1] (hyperforin, human platelets), the “incubation time to maximal effect on [Na^+]i” value was at most 15 min.

The IC50 is the point on the concentration scale where inhibition reaches its midpoint. Low readings indicate greater potency in that assay, high ones weaker potency in that assay. The inhibition is the change of the read-out against control, counted positive when it falls. The low end stands for a response near the control, the high end for a response far below the control. Take `CC[C@@]1([C@@H]2O[C@@H]([C@H]3O[C@@](O)(CO)[C@H](C)C[C@@H]3C)C[C@@H]2C)CC[C@H]([C@]2(C)CC[C@]3(C[C@H](O)[C@@H](C)[C@@H]([C@@H](C)[C@@H](OC)[C@H](C)C(=O)O)O3)O2)O1` [Monensin]: the IC50 in assay [2] (inhibition of ^3H-serotonin uptake into human platelets, Table 3) was 159 nM; in [6], 47.8 nM; in assay [8] it was over 1000 nM. The inhibition at 0.5 µM in assay [2] (monensin 500 nM, human platelets) is about 70%. The “IC50 synaptosomal uptake of norepinephrine” value in assay [3] was “nanomolar range”. The “IC50 synaptosomal uptake of dopamine” value in [4] is given as “nanomolar range”. Further, the Vmax in assay [5] is 0,065 ± 0,009 pM/min/mg protein. Further, the “[Na^+]i elevated from basal levels up to” value in assay [1] was 140,0 ± 9,1 mM. Moreover, the “incubation time to equilibration of [Na^+]i elevation” value in assay [1] (monensin, human platelets) came out at 15 min. Besides, the “IC50 synaptosomal uptake of GABA” value in [7] was “nanomolar range”. The “IC50 synaptosomal uptake of L-glutamate” value in assay [9] is listed as “nanomolar range”.
